Measurements from ChEMBL document CHEMBL1151328, “Novel cytotoxic acylated oligorhamnosides from Mezzettia leptopoda” (1998).
≈ marks a conversion by molar mass, not a printed value. Calls of active or inactive are those of the source. The calls are words filed in the database; no cut-off is given here.

Key:
[1] = Cytotoxicity against human BC1 cells; assay type: functional; conditions: read-out: ED50 (the source's name)
Lu1 = assay: Cytotoxicity against human Lu1 cells; assay type: functional; conditions: read-out: ED50 (the source's name)
Col2 = assay: Cytotoxicity against human Col2 cells; assay type: functional; conditions: read-out: ED50 (the source's name)
KB [2] = assay: Cytotoxicity against human KB cells; assay type: functional; conditions: read-out: ED50 (the source's name)
KB [3] = assay: Cytotoxicity against human drug-resistant KB cells in presence of 1 ug/mL vinblastine; assay type: functional; conditions: read-out: ED50 (the source's name)
KB [4] = assay: Cytotoxicity against human drug-resistant KB cells in absence of vinblastine; assay type: functional; conditions: read-out: ED50 (the source's name)
LNCaP = assay: Cytotoxicity against human LNCAP cells; assay type: functional; conditions: read-out: ED50 (the source's name)
ASK = assay: Antimitotic activity in rat ASK cells at 100 ug/mL; assay type: functional, cell-based

SMILES | EC50 [1] [µg/mL] | EC50 (Lu1) [µg/mL] | EC50 (Col2) [µg/mL] | EC50 (KB [2]) [µg/mL] | EC50 (KB [3]) [µg/mL] | EC50 (KB [4]) [µg/mL] | EC50 (LNCaP) [µg/mL] | Activity (ASK)
CCCCCCCCO[C@@H]1O[C@@H](C)[C@H](OC(=O)CCCCC)[C@@H](O[C@@H]2O[C@@H](C)[C@H](OC(C)=O)[C@@H](O[C@@H]3O[C@@H](C)[C@H](OC(C)=O)[C@@H](O)[C@H]3OC(C)=O)[C@H]2OC(C)=O)[C@H]1O [MEZZETTIASIDE 2] | > 20 | 8.6 (≈ 10.3 µM) | 4.3 (≈ 5.15 µM) | 6.2 (≈ 7.43 µM) | > 20 | > 20 | > 20 | inactive
CCCCCCCCO[C@@H]1O[C@@H](C)[C@H](OC(=O)CCCCC)[C@@H](O[C@@H]2O[C@@H](C)[C@H](OC(C)=O)[C@@H](O[C@@H]3O[C@@H](C)[C@H](O)[C@@H](O)[C@H]3OC(C)=O)[C@H]2OC(C)=O)[C@H]1O [MEZZETTIASIDE 8] | > 20 | 19.7 (≈ 24.8 µM) | 8.2 (≈ 10.3 µM) | > 20 | > 20 | > 20 | > 20 | inactive
CCCCCCCCO[C@@H]1O[C@@H](C)[C@H](OC(=O)CCCCC)[C@@H](O[C@@H]2O[C@@H](C)[C@H](OC(C)=O)[C@@H](OC(C)=O)[C@H]2OC(C)=O)[C@H]1O [MEZZETTIASIDE 11] | > 20 | 6.1 (≈ 9.43 µM) | 9 (≈ 13.9 µM) | 12.7 (≈ 19.6 µM) | 5.6 | > 20 | > 20 | inactive
CCCCCCCCO[C@@H]1O[C@@H](C)[C@H](OC(=O)CCCCC)[C@@H](O[C@@H]2O[C@@H](C)[C@H](O)[C@@H](OC(C)=O)[C@H]2OC(C)=O)[C@H]1O [MEZZETTIASIDE 9] | > 20 | 5.4 (≈ 8.93 µM) | > 20 | 11.3 (≈ 18.7 µM) | > 20 | > 20 | > 20 | inactive
CCCCCCCCO[C@@H]1O[C@@H](C)[C@H](OC(=O)CCCCC)[C@@H](O[C@@H]2O[C@@H](C)[C@H](OC(C)=O)[C@@H](O)[C@H]2OC(C)=O)[C@H]1O [MEZZETTIASIDEIDE 10] | > 20 | > 20 | > 20 | > 20 | > 20 | > 20 | > 20 | inactive
CCCCCCCCO[C@@H]1O[C@@H](C)[C@H](OC(=O)CCCCC)[C@@H](O[C@@H]2O[C@@H](C)[C@H](OC(C)=O)[C@@H](O[C@@H]3O[C@@H](C)[C@H](OC(C)=O)[C@@H](OC(C)=O)[C@H]3O)[C@H]2OC(C)=O)[C@H]1O [MEZZETTIASIDE 3] | > 20 | 11.8 (≈ 14.1 µM) | 4.9 (≈ 5.87 µM) | 14.3 (≈ 17.1 µM) | > 20 | > 20 | > 20 | inactive
CCCCCCCCO[C@@H]1O[C@@H](C)[C@H](OC(=O)CCCCC)[C@@H](O[C@@H]2O[C@@H](C)[C@H](OC(C)=O)[C@@H](O[C@@H]3O[C@@H](C)[C@H](OC(C)=O)[C@@H](O)[C@H]3O)[C@H]2OC(C)=O)[C@H]1O [MEZZETTIASIDE 4] | > 20 | 19.4 (≈ 24.5 µM) | 6.2 (≈ 7.82 µM) | 15.4 (≈ 19.4 µM) | > 20 | > 20 | > 20 | inactive
